Tested on: diarrhea-predominant IBS subjects
Experiment: 3007 Study: open-label 52-week safety study, adverse events and withdrawals
[1] = Placebo/Cilansetron 2 mg, N=279
[2] = Placebo/Cilansetron 2 mg, N=279, % of appropriate gender
[3] = Placebo/Cilansetron 2 mg, gender-specific

Cc1nccn1C[C@H]1CCc2c(c3cccc4c3n2CCC4)C1=O [cilansetron, (R)-(−)-4,5,6,8,9,10-hexahydro-10-[(2-methyl-1H-imidazol-1-yl)methyl]-11H-pyrido-[3,2,1-jk]-carbazol-11-one]
TEAE leading to permanent discontinuation: Urticaria NOS [1]: 1 (<1%) n (%)
TEAE leading to permanent discontinuation: Vertigo [1]: 0 n (%)
TEAE leading to permanent discontinuation: Visual Acuity Reduced [1]: 1 (<1%) n (%)
TEAE leading to permanent discontinuation: Vomiting NOS [1]: 0 n (%)
TEAE leading to permanent discontinuation: White Blood Cells Urine Positive [1]: 0 n (%)
Total Number of Subjects with at Least One TEAE Leading to Discontinuation of Study Medication [1]: 50 (18%) n (%)
TEAE leading to permanent discontinuation: Benign Ovarian Tumour* [2]: 1 (<1%) n (%)
TEAE leading to permanent discontinuation: Breast Cancer NOS* [2]: 2 (1%) n (%)
TEAE leading to permanent discontinuation: Ovarian Cancer NOS* [2]: 0 n (%)
TEAE leading to permanent discontinuation: Ovarian Cystadenofibroma* [2]: 1 (<1%) n (%)
TEAE leading to permanent discontinuation: Pregnancy NOS* [2]: 0 n (%)
TEAE: Female Reproductive Tract Infections* [3]: 0 n (%)
TEAE: Prostate Examination Abnormal* [3]: 0 n (%)
TEAE: Smear Cervix Abnormal* [3]: 0 n (%)
TEAE: Vaginal Candidiasis* [3]: 1 (<1%) n (%)
TEAE: Vaginitis Bacterial NOS* [3]: 0 n (%)
TEAE: Vaginitis* [3]: 0 n (%)
TEAE: Vaginosis Fungal NOS* [3]: 1 (<1%) n (%)
potential complications of constipation (Studies 3006 and 3007): two
constipation episodes reported as SAEs (Study 3007): None
constipation that led to dose reduction (Study 3007): seven
deaths (Study 3007): No deaths
longest duration of a constipation episode (Study 3007): 189 days
mean longest duration of a constipation episode (Study 3007): 10.4 days
median longest duration of a constipation episode (Study 3007): four
subjects mildly bothered by the constipation (Study 3007): 8%
subjects moderately bothered by the constipation (Study 3007): 7%
subjects reporting only one constipation episode (Study 3007): 15%
subjects with a constipation episode that lasted longer than 30 days (Study 3007): Thirteen
subjects with an SAE reported as probably related to study medication (colitis ischemic) (Study 3007): One
subjects with treatment-emergent SAEs reported as unlikely related to study medication (Study 3007): five
treatment-emergent SAE: angina pectoris (Study 3007): two
treatment-emergent SAE: breast cancer NOS (Study 3007): two
treatment-emergent SAE: chest pain (Study 3007): two
treatment-emergent SAEs of cardiac disorders (Study 3007): four
treatment-emergent rectal hemorrhage (Study 3007): Eight
overall safety, tolerability and QOL finding (Study 3007, 2 mg TID over 52 weeks): generally safe, well-tolerated, and improved QOL
TEAE incidence: abdominal pain NOS (Study 3007, 18 to 40 years): 8%
TEAE incidence: constipation (Study 3007, 18 to 40 years): 19%
TEAE incidence: flatulence, bloating and distension (Study 3007, 18 to 40 years): 8%
TEAE incidence: headache NOS (Study 3007, 18 to 40 years): 7%
TEAE incidence: lower respiratory tract and lung infections (Study 3007, 18 to 40 years): 4%
TEAE incidence: nausea and vomiting symptoms (Study 3007, 18 to 40 years): 9%
TEAE incidence: sinusitis NOS (Study 3007, 18 to 40 years): 9%
TEAE incidence: abdominal pain NOS (Study 3007, 41 to 64 years): 5%
TEAE incidence: constipation (Study 3007, 41 to 64 years): 23%
TEAE incidence: flatulence, bloating and distension (Study 3007, 41 to 64 years): 5%
TEAE incidence: headache NOS (Study 3007, 41 to 64 years): 6%
TEAE incidence: lower respiratory tract and lung infections (Study 3007, 41 to 64 years): 6%
TEAE incidence: nausea and vomiting symptoms (Study 3007, 41 to 64 years): 6%
TEAE incidence: sinusitis NOS (Study 3007, 41 to 64 years): 7%
TEAE incidence: abdominal pain NOS (Study 3007, 65 years or older): 12%
TEAE incidence: constipation (Study 3007, 65 years or older): 37%
TEAE incidence: flatulence, bloating and distension (Study 3007, 65 years or older): 12%
TEAE incidence: headache NOS (Study 3007, 65 years or older): 1%
TEAE incidence: lower respiratory tract and lung infections (Study 3007, 65 years or older): 1%
TEAE incidence: nausea and vomiting symptoms (Study 3007, 65 years or older): 1%
TEAE incidence: sinusitis NOS (Study 3007, 65 years or older): 3%
SAE: Abdominal Pain Upper (Study 3007, C/C): 1 (<1%) n (%)
SAE: Adenomyosis* (Study 3007, C/C): 1 (<1%) n (%)
SAE: Angina Pectoris (Study 3007, C/C): 2 (<1%) n (%)
SAE: Appendicitis (Study 3007, C/C): 1 (<1%) n (%)
SAE: Asthma NOS (Study 3007, C/C): 0 n (%)
SAE: Benign Ovarian Tumour* (Study 3007, C/C): 0 n (%)
SAE: Bladder Prolapse (Study 3007, C/C): 0 n (%)
SAE: Bone Neoplasm Malignant (Study 3007, C/C): 1 (<1%) n (%)
SAE: Breast Cancer NOS* (Study 3007, C/C): 0 n (%)
SAE: Bronchopneumonia NOS (Study 3007, C/C): 0 n (%)
SAE: Calculus Ureteric (Study 3007, C/C): 1 (<1%) n (%)
SAE: Cardiac Disorders (Study 3007, C/C): 3 (1%) n (%)
SAE: Chest Pain (Study 3007, C/C): 1 (<1%) n (%)
SAE: Cholelithiasis (Study 3007, C/C): 1 (<1%) n (%)
SAE: Colitis Ischaemic (Study 3007, C/C): 0 n (%)
SAE: Depression (Study 3007, C/C): 0 n (%)
SAE: Endometriosis* (Study 3007, C/C): 1 (<1%) n (%)
SAE: Fibroma NOS (Study 3007, C/C): 0 n (%)
SAE: Food Allergy (Study 3007, C/C): 0 n (%)
SAE: Gastritis NOS (Study 3007, C/C): 1 (<1%) n (%)
SAE: Gastroenteritis NOS (Study 3007, C/C): 1 (<1%) n (%)
SAE: Gastrointestinal Disorders (Study 3007, C/C): 3 (1%) n (%)
SAE: General Disorders and Administration Site Conditions (Study 3007, C/C): 1 (<1%) n (%)
SAE: Hallucination NOS (Study 3007, C/C): 0 n (%)
SAE: Hallucination, Auditory (Study 3007, C/C): 0 n (%)
SAE: Heat Exhaustion (Study 3007, C/C): 1 (<1%) n (%)

Reference: patent publication US20070093520A1, “Method of treatment of diarrhea-predominant irritable bowel syndrome in a subject” (priority 2005, published 2007)
